In assay [1] the target is T1, hLIFR and CD130 (IL6ST); LIFR/gp130 (Homo sapiens, UniProt P42702).
T1 sequence (P42702 45-1097): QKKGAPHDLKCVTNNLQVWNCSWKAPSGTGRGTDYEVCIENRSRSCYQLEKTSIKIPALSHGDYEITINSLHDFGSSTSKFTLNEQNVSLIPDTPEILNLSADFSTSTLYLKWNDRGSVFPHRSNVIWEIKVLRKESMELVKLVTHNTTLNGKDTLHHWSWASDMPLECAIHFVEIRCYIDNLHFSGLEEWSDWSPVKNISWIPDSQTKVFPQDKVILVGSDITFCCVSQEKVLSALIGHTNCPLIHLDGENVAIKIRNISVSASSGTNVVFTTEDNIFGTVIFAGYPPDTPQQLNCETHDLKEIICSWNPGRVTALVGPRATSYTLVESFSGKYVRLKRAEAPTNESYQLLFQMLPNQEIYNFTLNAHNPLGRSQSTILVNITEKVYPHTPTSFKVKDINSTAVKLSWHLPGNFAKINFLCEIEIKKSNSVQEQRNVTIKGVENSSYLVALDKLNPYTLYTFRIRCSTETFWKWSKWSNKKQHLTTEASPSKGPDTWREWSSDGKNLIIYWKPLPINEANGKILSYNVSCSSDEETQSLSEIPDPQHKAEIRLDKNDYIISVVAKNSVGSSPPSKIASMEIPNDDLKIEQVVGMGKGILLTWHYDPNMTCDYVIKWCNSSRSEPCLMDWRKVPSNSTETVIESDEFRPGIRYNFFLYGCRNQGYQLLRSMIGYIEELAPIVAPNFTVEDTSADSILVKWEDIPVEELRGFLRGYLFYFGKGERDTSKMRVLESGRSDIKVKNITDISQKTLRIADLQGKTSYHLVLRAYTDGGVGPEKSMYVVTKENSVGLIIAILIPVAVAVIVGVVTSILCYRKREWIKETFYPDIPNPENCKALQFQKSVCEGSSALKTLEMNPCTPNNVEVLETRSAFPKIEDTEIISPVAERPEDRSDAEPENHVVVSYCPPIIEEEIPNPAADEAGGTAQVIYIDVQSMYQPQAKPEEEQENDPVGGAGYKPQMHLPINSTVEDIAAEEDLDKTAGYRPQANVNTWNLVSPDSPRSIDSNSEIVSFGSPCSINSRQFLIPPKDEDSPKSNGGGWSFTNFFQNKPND
Kind of assay: STAT3. The class given is cell-based.

Assay [2] addresses T2, hLIFR (recombinant human LIFR, His Tag) (Homo sapiens, UniProt P42702).
T2 sequence (P42702 45-833 limits assumed): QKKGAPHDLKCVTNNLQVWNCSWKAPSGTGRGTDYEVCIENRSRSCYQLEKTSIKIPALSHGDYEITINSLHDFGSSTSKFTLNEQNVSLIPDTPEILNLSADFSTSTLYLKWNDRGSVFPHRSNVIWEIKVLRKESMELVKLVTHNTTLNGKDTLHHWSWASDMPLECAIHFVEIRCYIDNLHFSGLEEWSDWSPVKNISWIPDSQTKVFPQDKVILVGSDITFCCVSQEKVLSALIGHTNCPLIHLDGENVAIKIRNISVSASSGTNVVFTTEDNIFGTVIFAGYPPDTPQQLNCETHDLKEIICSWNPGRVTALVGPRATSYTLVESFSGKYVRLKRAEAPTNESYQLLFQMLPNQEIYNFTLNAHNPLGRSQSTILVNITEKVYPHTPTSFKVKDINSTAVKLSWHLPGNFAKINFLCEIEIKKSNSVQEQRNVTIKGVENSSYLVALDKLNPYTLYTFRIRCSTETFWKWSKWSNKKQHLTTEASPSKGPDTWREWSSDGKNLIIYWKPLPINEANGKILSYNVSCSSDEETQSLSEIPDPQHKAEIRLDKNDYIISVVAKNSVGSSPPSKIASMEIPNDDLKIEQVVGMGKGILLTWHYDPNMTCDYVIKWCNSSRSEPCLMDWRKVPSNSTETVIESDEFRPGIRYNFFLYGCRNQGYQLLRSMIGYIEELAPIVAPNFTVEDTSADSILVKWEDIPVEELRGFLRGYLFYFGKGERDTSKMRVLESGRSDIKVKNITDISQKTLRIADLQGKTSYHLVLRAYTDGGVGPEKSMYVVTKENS
The assay is described as follows: AlphaScreen, inhibition of LIFR/LIF binding.

Structures are written as SMILES.

On to `C[C@H](CCC(=O)O)[C@H]1CC[C@H]2[C@@H]3CC[C@@H]4C[C@H](O)CC[C@]4(C)[C@H]3C[C@H](O)[C@]12C` [DCA], for which the IC50 in assay [1] is around 6.2 µM; in assay [2] it was 18.4 µM.

Consider `C[C@H](CCC(=O)NCC(=O)O)[C@H]1CC[C@H]2[C@@H]3[C@H](O)C[C@@H]4C[C@H](O)CC[C@]4(C)[C@H]3CC[C@]12C` [GCDCA], for which the IC50 in assay [2] was 50.6 µM.

Take `C[C@H](CCC(=O)NCC(=O)O)[C@H]1CC[C@H]2[C@@H]3CC[C@@H]4C[C@H](O)CC[C@]4(C)[C@H]3CC[C@]12C` [GLCA]: the IC50 in assay [1] is around 9.8 µM; in assay [2], 23 µM.

Consider `C[C@H](CCC(=O)NCCS(=O)(=O)O)[C@H]1CC[C@H]2[C@@H]3[C@H](O)C[C@@H]4C[C@H](O)CC[C@]4(C)[C@H]3CC[C@]12C` [TCDCA], for which the IC50 in assay [2] stood at 38 µM.

One may read the IC50 as the point on the concentration scale where inhibition reaches its midpoint.

The values above are taken from publication doi:10.1101/2023.09.30.560269v1 (biorxiv, 2023).
